# From patent publication US20250122160A1, “PROTEIN TYROSINE PHOSPHATASE INHIBITORS AND METHODS OF USE THEREOF” (Calico Life Sciences LLC, priority 0001, published 2025)
# Assays:
# [1] = target: T1, His tagged full-length PTPN1 protein (Homo sapiens, UniProt P18031); assay: Mobility shift assay (MSA) to determine potency of PTPN1 inhibitors; format: biochemical; conditions: 0.5 nM enzyme, 2 μM substrate
# T1 construct: made in house
# T1 sequence (P18031 with tags, fused parts or gaps): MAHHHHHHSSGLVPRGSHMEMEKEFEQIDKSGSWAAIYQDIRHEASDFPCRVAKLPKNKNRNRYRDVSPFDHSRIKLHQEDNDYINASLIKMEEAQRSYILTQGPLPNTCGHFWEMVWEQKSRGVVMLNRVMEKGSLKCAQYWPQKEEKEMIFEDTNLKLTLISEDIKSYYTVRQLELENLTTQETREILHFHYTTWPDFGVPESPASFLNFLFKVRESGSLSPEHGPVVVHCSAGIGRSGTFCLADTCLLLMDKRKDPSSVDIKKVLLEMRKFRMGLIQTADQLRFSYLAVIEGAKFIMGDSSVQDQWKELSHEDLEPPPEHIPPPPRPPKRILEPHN
# Method in brief: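 His-tagged full-length human PTPN1 (0.5 nM) preincubated with compound 10 min at room temperature in pH 7.5 HEPES buffer with EGTA, EDTA, Tween 20 and DTT. Dephosphorylation of 2 μM fluorescent phospho-insulin-receptor peptide over 10 min measured by mobility shift. IC50 from % inhibition across a 12-point, 1:3 dilution series.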
# [2] = target: T2, His tagged PTPN2 (TC45) protein (Homo sapiens, UniProt P17706); assay: Mobility shift assay (MSA) to determine potency of PTPN2 inhibitors; format: biochemical; conditions: 0.5 nM enzyme, 2 μM substrate
# T2 construct: made in house
# T2 sequence (P17706 with tags, fused parts or gaps isoform P17706-2): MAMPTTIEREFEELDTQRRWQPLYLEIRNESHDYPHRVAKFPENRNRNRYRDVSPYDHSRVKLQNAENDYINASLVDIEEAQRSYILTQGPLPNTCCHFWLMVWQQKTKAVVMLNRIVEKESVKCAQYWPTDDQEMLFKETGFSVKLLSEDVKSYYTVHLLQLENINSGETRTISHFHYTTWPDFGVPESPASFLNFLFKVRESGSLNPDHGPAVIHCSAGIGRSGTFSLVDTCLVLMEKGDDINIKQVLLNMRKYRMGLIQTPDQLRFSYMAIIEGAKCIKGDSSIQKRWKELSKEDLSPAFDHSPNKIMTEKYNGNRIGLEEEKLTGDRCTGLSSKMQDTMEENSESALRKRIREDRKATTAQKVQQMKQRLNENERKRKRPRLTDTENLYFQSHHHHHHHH
# Method in brief: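 His-tagged human PTPN2 (TC45), 0.5 nM, preincubated 10 min at room temperature with compound (12-point, 1:3 dilutions) in HEPES pH 7.5 buffer with EGTA, EDTA, Tween 20 and DTT. Then 2 μM OG488-labelled phospho-insulin-receptor peptide was added for 10 min and quenched. % conversion was read by mobility shift, and IC50 came from % inhibition.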
SMILES,IC50 [1],IC50 [2]
Cc1nn(CCCC(C)(C)C#N)c(C)c1CN1CCc2cc(O)c(N3CC(=O)NS3(=O)=O)c(F)c2C1 [Compound 227],> 100 nM,> 100 nM
"N[C@@H]1COc2cc(O)c(N3CC(=O)NS3(=O)=O)c(F)c2C1 [Compound 326, 5-[(3S)-3-amino-5-fluoro-7-hydroxy-3,4-dihydro-2H-1-benzopyran-6-yl]-1λ^6,2,5-thiadiazolidine-1,1,3-trione]",10 to 100 nM,10 to 100 nM
Cc1nn(C(F)F)c(C)c1CCN1CCc2cc(O)c(N3CC(=O)NS3(=O)=O)c(F)c2C1 [Compound 238],1 to 10 nM,1 to 10 nM
O=C1CN(c2c(O)cc3c(c2F)CN(C2CC4(CNC4)C2)CC3)S(=O)(=O)N1 [Compound 160],10 to 100 nM,10 to 100 nM
COCCCCN1CCc2cc(O)c(N3CC(=O)NS3(=O)=O)c(F)c2C1 [Compound 293],10 to 100 nM,10 to 100 nM
"[2H]C1([2H])C(=O)NS(=O)(=O)N1c1c(O)cc2c(c1F)C[C@H](NCCC(C)C)CC2 [Compound 327, 5-{(7R)-1-fluoro-3-hydroxy-7-[(3-methylbutyl)amino]-5,6,7,8-tetrahydronaphthalen-2-yl}(4,4-^2H2)-1λ^6,2,5-thiadiazolidine-1,1,3-trione]",1 to 10 nM,< 1 nM
O=C1CN(c2c(O)cc3c(c2F)CN(CCCc2cccnc2)CC3)S(=O)(=O)N1 [Compound 207],10 to 100 nM,10 to 100 nM
O=C1CN(c2c(O)cc3c(c2F)CN(c2ccccn2)CC3)S(=O)(=O)N1 [Compound 191],10 to 100 nM,10 to 100 nM
CC(C)CCCN1CCc2cc(O)c(N3CC(=O)NS3(=O)=O)c(F)c2C1 [Compound 145],10 to 100 nM,10 to 100 nM
Cc1n[nH]c(C)c1CCN1CCc2cc(O)c(N3CC(=O)NS3(=O)=O)c(F)c2C1 [Compound 194],1 to 10 nM,1 to 10 nM
CC(C)(O)CCN1CCc2cc(O)c(N3CC(=O)NS3(=O)=O)c(F)c2C1 [Compound 170],> 100 nM,10 to 100 nM
COCCCNC(=O)N1CCc2cc(O)c(N3CC(=O)NS3(=O)=O)c(F)c2C1 [Compound 278],10 to 100 nM,10 to 100 nM
CC(C)CNC(=O)N1CCc2cc(O)c(N3CC(=O)NS3(=O)=O)c(F)c2C1 [Compound 206],10 to 100 nM,10 to 100 nM
Cc1nn(C)c(C)c1CN1CC2(CC(N3CCc4cc(O)c(N5CC(=O)NS5(=O)=O)c(F)c4C3)C2)C1 [Compound 237],> 100 nM,> 100 nM
O=C1CN(c2c(O)cc3c(c2F)CN(C(=O)NCC2CC(F)(F)C2)CC3)S(=O)(=O)N1 [Compound 262],1 to 10 nM,10 to 100 nM
Cn1nccc1CNC(=O)N1CCc2cc(O)c(N3CC(=O)NS3(=O)=O)c(F)c2C1 [Compound 272],10 to 100 nM,10 to 100 nM
"CC(C)CNC(=N)N1CCc2cc(O)c(N3CC(=O)NS3(=O)=O)c(F)c2C1 [Compound 329, 8-fluoro-6-hydroxy-N-(2-methylpropyl)-7-(1,1,4-trioxo-1λ^6,2,5-thiadiazolidin-2-yl)-3,4-dihydroisoquinoline-2(1H)-carboximidamide]",10 to 100 nM,10 to 100 nM

# More lines, main results first:
IC50 [1],SMILES,IC50 [2]
10 to 100 nM,"O=C1CN(c2c(O)cc3c(c2F)C[C@H](NCCCOCC(F)F)CO3)S(=O)(=O)N1 [Compound 379, 5-[(3S)-3-{[3-(2,2-difluoroethoxy)propyl]amino}-5-fluoro-7-hydroxy-3,4-dihydro-2H-1-benzopyran-6-yl]-1λ^6,2,5-thiadiazolidine-1,1,3-trione]",10 to 100 nM
10 to 100 nM,"O=C1CN(c2c(O)cc3c(c2F)C[C@H](NCC2C4CCCC42)CO3)S(=O)(=O)N1 (mixture of isomers) [Compound 383, 5-[(3S)-3-({[(1RS,5SR)-bicyclo[3.1.0]hexan-6-yl]methyl}amino)-5-fluoro-7-hydroxy-3,4-dihydro-2H-1-benzopyran-6-yl]-1λ^6,2,5-thiadiazolidine-1,1,3-trione]",10 to 100 nM
10 to 100 nM,"O=C1CN(c2c(O)cc3c(c2F)C[C@H](NCC2CCCCO2)CC3)S(=O)(=O)N1 (stereo partly drawn) [Compound 350, 5-[(7R)-1-fluoro-3-hydroxy-7-{[(oxan-2-yl)methyl]amino}-5,6,7,8-tetrahydronaphthalen-2-yl]-1λ^6,2,5-thiadiazolidine-1,1,3-trione]",1 to 10 nM
10 to 100 nM,"O=C1CN(c2c(O)cc3c(c2F)C[C@H](NCCC2CCOCC2)CO3)S(=O)(=O)N1 [Compound 375, 5-[(3S)-5-fluoro-7-hydroxy-3-{[2-(oxan-4-yl)ethyl]amino}-3,4-dihydro-2H-1-benzopyran-6-yl]-1λ^6,2,5-thiadiazolidine-1,1,3-trione]",10 to 100 nM
10 to 100 nM,"O=C1CN(c2c(O)cc3c(c2F)CC(CNCCO)CC3)S(=O)(=O)N1 (centres unmarked) [Compound 403, 5-(1-fluoro-3-hydroxy-7-{[(2-hydroxyethyl)amino]methyl}-5,6,7,8-tetrahydronaphthalen-2-yl)-1λ^6,2,5-thiadiazolidine-1,1,3-trione]",10 to 100 nM
10 to 100 nM,"CC1C[C@@H](NC(=O)OC(C)(C)C)Cc2c1cc(O)c(N1CC(=O)NS1(=O)=O)c2F (mixture of isomers) [Compound 392, tert-butyl [(2R)-8-fluoro-6-hydroxy-4-methyl-7-(1,1,4-trioxo-1λ^6,2,5-thiadiazolidin-2-yl)-1,2,3,4-tetrahydronaphthalen-2-yl]carbamate]",10 to 100 nM
10 to 100 nM,"CC1(CN[C@@H]2CCc3cc(O)c(N4CC(=O)NS4(=O)=O)c(F)c3C2)COC1 [Compound 344, 5-[(7R)-1-fluoro-3-hydroxy-7-{[(3-methyloxetan-3-yl)methyl]amino}-5,6,7,8-tetrahydronaphthalen-2-yl]-1λ^6,2,5-thiadiazolidine-1,1,3-trione]",1 to 10 nM
1 to 10 nM,"NCCC1(CCN[C@@H]2CCc3cc(O)c(N4CC(=O)NS4(=O)=O)c(F)c3C2)CCC1 [Compound 377, 5-[(7R)-7-({2-[1-(2-aminoethyl)cyclobutyl]ethyl}amino)-1-fluoro-3-hydroxy-5,6,7,8-tetrahydronaphthalen-2-yl]-1λ^6,2,5-thiadiazolidine-1,1,3-trione]",< 1 nM
10 to 100 nM,"CCOCCCN[C@@H]1CCc2cc(O)c(N3CC(=O)NS3(=O)=O)c(F)c2C1 [Compound 354, 5-{(7R)-7-[(3-ethoxypropyl)amino]-1-fluoro-3-hydroxy-5,6,7,8-tetrahydronaphthalen-2-yl}-1λ^6,2,5-thiadiazolidine-1,1,3-trione]",1 to 10 nM
10 to 100 nM,"COCCCN[C@@H]1CCc2cc(O)c(N3CC(=O)NS3(=O)=O)c(F)c2C1 [Compound 363, 5-{(7R)-1-fluoro-3-hydroxy-7-[(3-methoxypropyl)amino]-5,6,7,8-tetrahydronaphthalen-2-yl}-1λ^6,2,5-thiadiazolidine-1,1,3-trione]",1 to 10 nM
1 to 10 nM,"CC(C)CCN[C@@H]1CCc2c(F)c(O)c(N3CC(=O)NS3(=O)=O)c(F)c2C1 [Compound 331, 5-{(7R)-1,4-difluoro-3-hydroxy-7-[(3-methylbutyl)amino]-5,6,7,8-tetrahydronaphthalen-2-yl}-1λ^6,2,5-thiadiazolidine-1,1,3-trione]",1 to 10 nM
10 to 100 nM,"NC[C@@H]1CCc2cc(O)c(N3CC(=O)NS3(=O)=O)c(F)c2C1 [Compound 405, 5-[(7R)-7-(aminomethyl)-1-fluoro-3-hydroxy-5,6,7,8-tetrahydronaphthalen-2-yl]-1λ^6,2,5-thiadiazolidine-1,1,3-trione]",10 to 100 nM
1 to 10 nM,"[2H]C1([2H])Cc2cc(O)c(N3CC(=O)NS3(=O)=O)c(F)c2C([2H])([2H])C1([2H])NCCC(C)C (centres unmarked) [Compound 340, 5-{1-fluoro-3-hydroxy-7-[(3-methylbutyl)amino](6,6,7,8,8-^2H5)-5,6,7,8-tetrahydronaphthalen-2-yl}-1λ^6,2,5-thiadiazolidine-1,1,3-trione]",< 1 nM
10 to 100 nM,"O=C1CN(c2c(O)cc3c(c2F)C[C@H](NCC2COC2)CC3)S(=O)(=O)N1 [Compound 366, 5-[(7R)-1-fluoro-3-hydroxy-7-{[(oxetan-3-yl)methyl]amino}-5,6,7,8-tetrahydronaphthalen-2-yl]-1λ^6,2,5-thiadiazolidine-1,1,3-trione]",10 to 100 nM
